Residue numbers refer to the chain shown, from its start. Like-named read-outs stand apart in the source and are kept apart here.
Experiments:
[1] = system: GPR139; details: cited from earlier work; for activation of GPR139, concentration range: ref Isberg et al. and Liu et al.
[2] = molecular target: T1, GPR139 N271A^7×38 (Homo sapiens, UniProt Q6DWJ6, N271A); experiment: Fluo-4 Ca2+-assay, GPR139 mutant N271A; assay type: cell-based; parameters: key to Emax ± SEM: NE: no effect (loss of activity); details: for EC50: N271A mutant (surface expression 53% of WT); for Change of in vitro potency: N271A mutant versus WT
T1 construct: mGluR5 signal peptide (N); expressed in transfected cells; host or cells: HEK293
T1 sequence (Q6DWJ6 2-353 N271A limits assumed): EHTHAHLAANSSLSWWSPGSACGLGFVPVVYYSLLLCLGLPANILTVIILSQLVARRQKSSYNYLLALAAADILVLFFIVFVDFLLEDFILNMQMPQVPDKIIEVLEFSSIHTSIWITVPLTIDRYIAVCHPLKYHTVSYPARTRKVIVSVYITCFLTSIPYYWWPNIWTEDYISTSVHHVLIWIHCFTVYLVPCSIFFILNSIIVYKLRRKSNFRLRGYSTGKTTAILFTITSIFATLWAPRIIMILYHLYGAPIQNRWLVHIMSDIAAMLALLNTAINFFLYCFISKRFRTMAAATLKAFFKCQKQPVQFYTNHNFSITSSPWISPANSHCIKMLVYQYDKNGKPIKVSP
Excerpt: (§1) To study the influence of specific amino acids in the predicted binding pocket on receptor function, the desired mutations were introduced into an N-terminally c-myc-tagged wild type human GPR139 (NM_001002911.3) in the pEGFP-N1 vector (BD Biosciences)[32], [33]. As previously described, these plasmids carry the signal peptide of mGluR5 to promote cell surface expression followed by a c-myc epitope to enable detection of total and surface expression by ELISA, followed by an engineered MluI and NotI site for easy insertion of the receptor of interest. Furthermore, the start-codon in the GPR139 sequence was deleted to ensure c-myc-tagging. Mutagenesis was designed in Serial Cloner 2.6 (© Franck Perez [SerialBasics]) and carried out by GenScript (USA). All mutated residues are illustrated in Supplementary Fig. 1b. An untagged GPR139(WT) in pEGFP-N1 was also generated to ensure that the c-myc-tag had no influence on GPR139(WT) function.
(§2) All GPR139 mutants were transfected into HEK293 cells. The HEK293 cells were grown in Dulbecco’s modified Eagle’s medium (DMEM) (Gibco, 41965) supplemented with 10% dialyzed fetal bovine serum (Gibco, 26400, United States origin), 100 units/mL penicillin and 100 μg/mL streptomycin (Gibco, 15140). HEK293 cells were reverse transfected using Lipofectamine2000 (Invitrogen). More specifically two mixtures were made: 1) 10 ng DNA/well + 25 μL Opti-MEM/well and 2) […] Lipofectamine2000/well + 25 μL Opti-MEM/well. The two mixtures were mixed and 50 μL/well was added directly in black 96-well plates with flat clear bottoms for the Fluo-4 Ca^2+-assay (Corning, Falcon, 353219) or in white Opaque 96-well Microplate (PerkinElmer Life, 6005680) for ELISA. 100 μL containing 20,000 cells were added to each well and incubated 48 hours before assays. All plates were coated with poly-D-lysine.
(§3) Compound 1a (1a) was kindly provided by H. Lundbeck A/S, Denmark. […] Both compounds were dissolved to 20 mM in DMSO (Sigma, D2650) and subsequently diluted in a HEPES buffer (HBSS (Gibco, 14025) supplemented with 20 mM HEPES + 1 mM MgCl2 + 1 mM CaCl2, pH = 7.4) to a final concentration of 0.5% DMSO in the Fluo-4 Ca^2+-assay. The DMSO level was kept constant for all concentrations of both compounds. DMSO was confirmed not to have any activity by itself at this concentration. L-Trp (T0254) and L -Phe (P2126) were obtained from Sigma-Aldrich and dissolved in buffer.
(§4) The Ca^2+ measurements were preformed using the Fluo-4 NW Calcium Assay Kit (Invitrogen, Molecular Probes, F36206) as previously described. Briefly, the Fluo-4 dye loading solution was prepared according to the manufacturer’s instructions by dissolving it in HEPES-buffer supplemented with 2.5 mM probenecid. 50 μL dye loading solution was added to each well. Cells were incubated with the Fluo-4 dye for 60 min at 37 °C, then washed with 100 μL HEPES-buffer. 100 μL HEPES-buffer supplemented with 2.5 mM probenecid was then added to each well and incubated in 10 minutes at 37 °C before measurement. […] Intracellular calcium changes were recorded as indicated on either a NOVOstar (BMG Labtech) at 37 °C with an excitation filter of 485 nm and an emission filters 520 nm or a FlexStation 3 Benchtop Multi-Mode Microplate Reader (Molecular Devices) at 37 °C with an excitation wavelength of 485 nm and emission of 525 nm.
(§5) All pharmacological data have been analyzed by using Prism 6.0 (GraphPad Software Inc., San Diego). Fitting of concentration response curves was performed by non-linear regression log(agonist) vs. response (four parameters). Pooled data are shown with standard error of the mean (S.E.M.) and data showing one representative are shown with standard deviation (S.D.). Changes in potency (pEC50) and span of myc-GPR139(WT) in comparison to untagged GPR139(WT) was statistically analyzed with a paired t-test and significance was accepted at p < 0.05. The ELISA data were normalized to surface expression of myc-GPR139(WT) (100%). […]

[3] = molecular target: T2, GPR139 F109A^3×33 (Homo sapiens, UniProt Q6DWJ6, F109A); experiment: Fluo-4 Ca2+-assay, GPR139 mutant F109A; assay type: cell-based; parameters: key to Emax ± SEM: NE: no effect (loss of activity); details: for EC50: F109A mutant; for Change of in vitro potency: F109A mutant versus WT, fold decreased
T2 construct: mGluR5 signal peptide (N); expressed in transfected cells; host or cells: HEK293
T2 sequence (Q6DWJ6 2-353 F109A limits assumed): T1 sequence (Q6DWJ6 2-353 N271A limits assumed) with F108A, A270N
Excerpt: as §1, §2, §3, §4, §5

EC50 [2] [mM] | Change of in vitro potency [2] | Emax ± SEM ([2]; N271A, at 8 μM, normalized to buffer (0%) and 8 μM 1a (100%) on WT) | EC50 [3] [mM] | Change of in vitro potency [3] | Emax ± SEM ([3]; F109A, at 8 μM, normalized to buffer (0%) and 8 μM 1a (100%) on WT) | Emax ± SEM ([2]; N271A, at 100 μM, normalized to buffer (0%) and 100 μM 7c (100%) on WT) | Emax at 100 µM [3] [%] | Emax at 30000 µM ([2]; N271A, at 30 mM, normalized to buffer (0%) and 30 mM Phe (100%) on WT) [%] | Emax at 30000 µM ([3]; F109A, at 30 mM, normalized to buffer (0%) and 30 mM Phe (100%) on WT) [%] | SMILES | agonist potency ([1]; ref Shi et al.) | activation of GPR139, concentration range [1] | Emax at 10000 µM ([2]; N271A, at 10 mM, normalized to buffer (0%) and 10 mM Trp (100%) on WT) [%] | Emax at 10000 µM ([3]; F109A, at 10 mM, normalized to buffer (0%) and 10 mM Trp (100%) on WT) [%] | agonist potency ([1]; ref Dvorak et al.)
> 0.00794 | Loss of function | NE* | > 0.00794 | Loss of function | NE* |  |  |  |  | COc1cc(OC)cc(C(=O)NNC(=O)Nc2cccc3ccccc23)c1 [Compound 1a] | ten-nanomolar range |  |  |  | 
> 0.1 | Loss of function |  | > 0.1 | >2000 fold decreased |  | NE** | 60 ± 3 |  |  | C[C@@H](NC(=O)CNC(=O)c1cccc(Cl)c1)c1ccccc1 (racemic) [Compound 7c] |  |  |  |  | ten-nanomolar range
> 31.6 |  |  | > 31.6 |  |  |  |  | 38 ± 9 | 60 ± 6 | N[C@@H](Cc1ccccc1)C(=O)O [L-Phe, phenylalanine] |  | hundred-micromolar range |  |  | 

SMILES | EC50 [2] [mM] | Change of in vitro potency [2] | Emax ± SEM ([2]; N271A, at 8 μM, normalized to buffer (0%) and 8 μM 1a (100%) on WT) | EC50 [3] [mM] | Change of in vitro potency [3] | Emax ± SEM ([3]; F109A, at 8 μM, normalized to buffer (0%) and 8 μM 1a (100%) on WT) | Emax ± SEM ([2]; N271A, at 100 μM, normalized to buffer (0%) and 100 μM 7c (100%) on WT) | Emax at 100 µM [3] [%] | Emax at 30000 µM ([2]; N271A, at 30 mM, normalized to buffer (0%) and 30 mM Phe (100%) on WT) [%] | Emax at 30000 µM ([3]; F109A, at 30 mM, normalized to buffer (0%) and 30 mM Phe (100%) on WT) [%] | agonist potency ([1]; ref Shi et al.) | activation of GPR139, concentration range [1] | Emax at 10000 µM ([2]; N271A, at 10 mM, normalized to buffer (0%) and 10 mM Trp (100%) on WT) [%] | Emax at 10000 µM ([3]; F109A, at 10 mM, normalized to buffer (0%) and 10 mM Trp (100%) on WT) [%] | agonist potency ([1]; ref Dvorak et al.)
N[C@@H](Cc1c[nH]c2ccccc12)C(=O)O [L-Trp, tryptophan] | > 10 |  |  | > 10 |  |  |  |  |  |  |  | hundred-micromolar range | 31 ± 5 | 60 ± 10 | 
